Measurements: PubChem BioAssay AID192 (DTP/NCI, 2004)
Several values for one entry are separate records, joined by “and”; a condition that tells them apart may be missing. Equal values may be shown once. Inconclusive results and toxic doses are left out.

Tested on: BDF1 mice, B16 melanoma ip, median survival T/C
Assay: NCI In Vivo Anticancer Drug Screen. Data for tumor model B16 Melanoma (intraperitoneal) in B6D2F1 (BDF1) mice
Settings: endpoint: median survival time, higher = longer survival
In short: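 Antitumor activity is assessed in mice bearing a transplanted tumor, with survival or tumor size compared against vehicle-dosed controls and expressed as T/C.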

[1] = dose: 6.25 mg/kg/injection, schedule: Q01DX009 (ip), vehicle: saline
[2] = dose: 12.5 mg/kg/injection, schedule: Q01DX009 (ip), vehicle: saline
[3] = dose: 50.0 mg/kg/injection, schedule: Q01DX009 (ip), vehicle: saline
[4] = dose: 100.0 mg/kg/injection, schedule: Q01DX009 (ip), vehicle: saline
[5] = dose: 50.0 mg/kg/injection, schedule: Q01DX009 (ip), vehicle: saline with Tween-80
[6] = dose: 100.0 mg/kg/injection, schedule: Q01DX009 (ip), vehicle: saline with Tween-80
[7] = dose: 200.0 mg/kg/injection, schedule: Q01DX009 (ip), vehicle: saline with Tween-80
[8] = dose: 25.0 mg/kg/injection, schedule: Q01DX009 (ip), vehicle: saline

C1CN1c1nc(N2CC2)nc(N2CC2)n1
T/C (dose: 0.05 mg/kg/injection, schedule: Q01DX009 (ip), vehicle: saline): 97 % of control and 108 % of control | T/C (dose: 0.06 mg/kg/injection, schedule: Q01DX009 (ip), vehicle: saline): 103 % of control | T/C (dose: 0.06 mg/kg/injection, schedule: Q01DX009 (ip), vehicle: suspension in saline): 103 % of control | T/C (dose: 0.1 mg/kg/injection, schedule: Q01DX009 (ip), vehicle: saline): 103 % of control and 109 % of control and 120 % of control | T/C (dose: 0.12 mg/kg/injection, schedule: Q01DX009 (ip), vehicle: saline with Tween-80): 107 % of control | T/C (dose: 0.12 mg/kg/injection, schedule: Q01DX009 (ip), vehicle: suspension in saline): 100 % of control | T/C (dose: 0.13 mg/kg/injection, schedule: Q01DX009 (ip), vehicle: saline sonified): 94 % of control and 96 % of control | T/C (dose: 0.13 mg/kg/injection, schedule: Q01DX009 (ip), vehicle: saline with Tween-80): 102 % of control and 105 % of control | T/C (dose: 0.25 mg/kg/injection, schedule: Q01DX009 (ip), vehicle: saline sonified): 96 % of control and 100 % of control | T/C (dose: 0.25 mg/kg/injection, schedule: Q01DX009 (ip), vehicle: saline with Tween-80): 107 % of control and 108 % of control and 119 % of control | T/C (dose: 0.25 mg/kg/injection, schedule: Q01DX009 (ip), vehicle: suspension in saline): 108 % of control | T/C (dose: 0.3 mg/kg/injection, schedule: Q01DX009 (ip), vehicle: saline): 150 % of control | T/C (dose: 0.5 mg/kg/injection, schedule: Q01DX009 (ip), vehicle: saline sonified): 96 % of control and 101 % of control | T/C (dose: 0.5 mg/kg/injection, schedule: Q01DX009 (ip), vehicle: saline with Tween-80): 105 % of control and 114 % of control and 119 % of control | T/C (dose: 0.5 mg/kg/injection, schedule: Q01DX009 (ip), vehicle: suspension in saline): 124 % of control | T/C (dose: 0.5 mg/kg/injection, schedule: Q08DX002 (ip), vehicle: saline sonified): 98 % of control and 103 % of control | T/C (dose: 0.5 mg/kg/injection, schedule: Q08DX002 (ip), vehicle: saline with Tween-80): 100 % of control and 119 % of control | T/C (dose: 1.0 mg/kg/injection, schedule: Q01DX009 (ip), vehicle: suspension in saline): 109 % of control | T/C (dose: 1.0 mg/kg/injection, schedule: Q08DX002 (ip), vehicle: saline sonified): 108 % of control and 114 % of control | T/C (dose: 1.0 mg/kg/injection, schedule: Q08DX002 (ip), vehicle: saline with Tween-80): 102 % of control and 113 % of control and 116 % of control | T/C (dose: 2.0 mg/kg/injection, schedule: Q08DX002 (ip), vehicle: saline sonified): 105 % of control | T/C (dose: 2.0 mg/kg/injection, schedule: Q08DX002 (ip), vehicle: saline with Tween-80): 123 % of control | T/C (dose: 4.0 mg/kg/injection, schedule: Q08DX002 (ip), vehicle: saline with Tween-80): 90 % of control and 105 % of control

CCN(CC)CC#CCCCCN(CC)CC
T/C (dose: 3.13 mg/kg/injection, schedule: Q01DX009 (ip), vehicle: saline): 95 % of control | T/C [1]: 97 % of control | T/C [2]: 90 % of control | T/C [3]: 89 % of control

c1ccc2c(NCCCCCCCCNc3c4ccccc4nc4ccccc34)c3ccccc3nc2c1
T/C (dose: 5.0 mg/kg/injection, schedule: Q01DX009 (ip), vehicle: Klucel (hydroxypropylcellulose) (HPC)): 151 % of control and 159 % of control | T/C (dose: 10.0 mg/kg/injection, schedule: Q01DX009 (ip), vehicle: Klucel (hydroxypropylcellulose) (HPC)): 164 % of control | T/C (dose: 20.0 mg/kg/injection, schedule: Q01DX009 (ip), vehicle: Klucel (hydroxypropylcellulose) (HPC)): 156 % of control

C(=P(c1ccccc1)(c1ccccc1)c1ccccc1)[P+](c1ccccc1)(c1ccccc1)c1ccccc1
T/C (dose: 3.12 mg/kg/injection, schedule: Q01DX009 (ip), vehicle: Klucel (hydroxypropylcellulose) (HPC)): 111 % of control | T/C (dose: 6.25 mg/kg/injection, schedule: Q01DX009 (ip), vehicle: suspension in saline): 157 % of control

Cc1nn(C2CC(O)C(O)C(CO)O2)c(=O)[nH]c1=O (stereo not drawn)
T/C [3]: 95 % of control | T/C [4]: 86 % of control | T/C (dose: 400.0 mg/kg/injection, schedule: Q01DX009 (ip), vehicle: saline): 86 % of control

Cc1c(CNc2ccc(C(=O)NC(CC(=O)O)C(=O)O)cc2)ccc2nc(N)nc(N)c12 (stereo not drawn)
T/C (dose: 0.02 mg/kg/injection, schedule: Q01DX009 (ip), vehicle: saline with Tween-80): 94 % of control | T/C (dose: 0.04 mg/kg/injection, schedule: Q01DX009 (ip), vehicle: saline with Tween-80): 94 % of control | T/C (dose: 0.04 mg/kg/injection, schedule: Q01DX009 (ip), vehicle: saline): 103 % of control | T/C (dose: 0.09 mg/kg/injection, schedule: Q01DX009 (ip), vehicle: saline with Tween-80): 86 % of control | T/C (dose: 0.09 mg/kg/injection, schedule: Q01DX009 (ip), vehicle: saline): 100 % of control | T/C (dose: 0.18 mg/kg/injection, schedule: Q01DX009 (ip), vehicle: saline with Tween-80): 97 % of control | T/C (dose: 0.19 mg/kg/injection, schedule: Q01DX009 (ip), vehicle: saline): 111 % of control | T/C (dose: 0.78 mg/kg/injection, schedule: Q01DX009 (ip), vehicle: saline with Tween-80): 118 % of control

O=C1O/C(=C\c2ccccc2)c2c(Br)c(Br)c(Br)c(Br)c21
T/C [5]: 112 % of control | T/C [6]: 107 % of control | T/C [7]: 112 % of control | T/C (dose: 400.0 mg/kg/injection, schedule: Q01DX009 (ip), vehicle: saline with Tween-80): 112 % of control

C=CC1CN2CCC1CC2C(O)c1ccnc2ccc(OC)cc12 (stereo not drawn) (tested in a mixture with another compound)
T/C [5]: 107 % of control | T/C [6]: 107 % of control | T/C [7]: 101 % of control

COC(=O)CNc1ccc(S(=O)(=O)c2ccc(N)cc2)cc1
T/C (dose: 100.0 mg/kg/injection, schedule: Q01DX009 (ip), vehicle: Klucel (hydroxypropylcellulose) (HPC)): 103 % of control | T/C (dose: 200.0 mg/kg/injection, schedule: Q01DX009 (ip), vehicle: Klucel (hydroxypropylcellulose) (HPC)): 106 % of control | T/C (dose: 400.0 mg/kg/injection, schedule: Q01DX009 (ip), vehicle: Klucel (hydroxypropylcellulose) (HPC)): 120 % of control

CNC(=O)Oc1c(C)occc1=O
T/C [1]: 100 % of control | T/C [2]: 90 % of control | T/C [8]: 100 % of control | T/C [3]: 97 % of control

CCCCCCCCCCCCCCCC[N+](C)(C)C
T/C (dose: 0.5 mg/kg/injection, schedule: Q04DX003 (ip), vehicle: saline): 95 % of control | T/C (dose: 1.0 mg/kg/injection, schedule: Q01DX009 (ip), vehicle: saline): 93 % of control | T/C (dose: 1.0 mg/kg/injection, schedule: Q04DX003 (ip), vehicle: saline): 95 % of control | T/C (dose: 1.25 mg/kg/injection, schedule: Q01DX009 (ip), vehicle: saline with Tween-80): 102 % of control | T/C (dose: 2.0 mg/kg/injection, schedule: Q01DX009 (ip), vehicle: saline): 93 % of control | T/C (dose: 2.0 mg/kg/injection, schedule: Q04DX003 (ip), vehicle: saline): 95 % of control | T/C (dose: 2.5 mg/kg/injection, schedule: Q01DX009 (ip), vehicle: saline with Tween-80): 107 % of control | T/C (dose: 2.75 mg/kg/injection, schedule: Q01DX009 (ip), vehicle: saline): 93 % of control | T/C (dose: 4.0 mg/kg/injection, schedule: Q01DX009 (ip), vehicle: saline): 91 % of control | T/C (dose: 5.0 mg/kg/injection, schedule: Q01DX009 (ip), vehicle: saline with Tween-80): 91 % of control | T/C (dose: 5.5 mg/kg/injection, schedule: Q01DX009 (ip), vehicle: saline): 93 % of control

CCC(=O)OC1(c2ccccc2)CCN(C)C1C (stereo not drawn)
T/C [1]: 102 % of control | T/C [2]: 102 % of control | T/C [8]: 95 % of control | T/C [3]: 97 % of control | T/C [4]: 90 % of control

COc1cccc2c1C(=O)c1c(O)c3c(c(O)c1C2=O)C[C@@](O)(C(=O)COC(=O)c1cccnc1)C[C@@H]3OC1CC(N)C(O)C(C)O1 (stereo partly drawn)
T/C (dose: 0.19 mg/kg/injection, schedule: Q01DX001 (ip), vehicle: water): 92 % of control | T/C (dose: 0.38 mg/kg/injection, schedule: Q01DX001 (ip), vehicle: water): 101 % of control | T/C (dose: 0.75 mg/kg/injection, schedule: Q01DX001 (ip), vehicle: water): 108 % of control | T/C (dose: 3.0 mg/kg/injection, schedule: Q01DX001 (ip), vehicle: water): 113 % of control and 239 % of control and 249 % of control | T/C (dose: 6.0 mg/kg/injection, schedule: Q01DX001 (ip), vehicle: water): 103 % of control and 250 % of control and 255 % of control | T/C (dose: 12.0 mg/kg/injection, schedule: Q01DX001 (ip), vehicle: water): 251 % of control and 323 % of control | T/C (dose: 24.0 mg/kg/injection, schedule: Q01DX001 (ip), vehicle: water): 325 % of control

O=C(Nc1cccc(C(F)(F)F)c1)c1cccc(C(=O)Nc2cccc(C(F)(F)F)c2)c1
T/C (dose: 12.5 mg/kg/injection, schedule: Q01DX009 (ip), vehicle: Klucel (hydroxypropylcellulose) (HPC)): 101 % of control | T/C (dose: 25.0 mg/kg/injection, schedule: Q01DX009 (ip), vehicle: Klucel (hydroxypropylcellulose) (HPC)): 106 % of control | T/C (dose: 50.0 mg/kg/injection, schedule: Q01DX009 (ip), vehicle: Klucel (hydroxypropylcellulose) (HPC)): 108 % of control
